Laboratory results from article PMC7901654, “Bioisosteric Discovery of NPA101.3, a Second-Generation RET/VEGFR2 Inhibitor Optimized for Single-Agent Polypharmacology” (Journal of Medicinal Chemistry, 2020).

How the values were obtained:
[1] = LCMS plasma analysis (in vivo metabolism study); set-up: species or system mouse; details: 10 mg/kg oral, mice, 1 h and 4 h after dosing, LC-MS
Description: In vivo target (RET and VEGFR2) inhibition was studied by treating animals grafted with NIH3T3 RET/C634Y cells at different doses (0.3, 1, or 3 mg/kg/day p.o.) of NPA101.3 for 2 days and then performing Western blot analysis on protein extracts. […] Then, to determine antitumorigenic activity and to better distinguish RET- and VEGFR2-mediated effects, we tested NPA101.3 in nude mice transplanted with NIH3T3 cells transformed by either RET/C634Y or HRAS/G12V. Before tumors appeared, animals were treated daily with NPA101.3 (1.0, 3.0, or 10.0 mg/kg/day) or left untreated. […] Still, VEGFR2 inhibition was detected also in RAS-driven tumors, an effect that might explain the, albeit reduced, effect of the drug on their growth (Figure S13). Importantly, as predicted, no trace of NPA101.3 demethyl metabolites was detected after 1 or 4 h from oral dosing in mice (Figure S14). […]
After thawing, cells were maintained in culture using minimum essential medium supplemented with 10% foetal bovine serum, 1% non-essential amino acids, 1% sodium pyruvate, 2mM L-glutamine, 1% pen-strep, 15μg/ml blasticidin and 100 μg/ml hygromycin. hERG channel expression induction was obtained by adding 10 μg/ml tetracycline 48 h before the experiment. […] Current amplitude was measured and […]
Supplementary Figure S14: In vivo metabolism study. […] NPA101.3 drug peak was detected at 3.61 min (m/z = 529) at either time point. […]

[2] = system: RET mutant TT, MZ-CRC-1, TPC-1, and Lc-2/ad human cancer cells; test: Cell growth curves, RET mutant human cancer cells taken together; assay type: cell-based; details: range over TT, MZ-CRC-1, TPC-1, Lc-2/ad, read-out: IC50, proliferation of RET mutant human cancer cells
Description: The IC50 dose for all human RET-negative cells was >100.0 nM, confirming compound selectivity (Figure S8 and Table S4).
Nthy-ory-3-1 (10000 per well), TPC-1 (10000 per well), MZ-CRC-1 (100000 per well), TT (200000 per well), Lc-2/ad (100000 per well), BCPAP (10000 per well), 8505-C (10000 per well), PC-9 (10000 per well), A549 (10000 per well), CALU-1 (10000 per well), NIH3T3 RET/C634Y (10000 per well), and NIH3T3 HRAS/G12V (10000 per well) were seeded in six-well tissue culture plates. Cells were kept in 2% (TPC-1), 5% (Nthy-ori-3-1), or 10% (BCPAP, 8505-C, CALU-1, A549, PC-9, TT, MZ-CRC-1, and Lc-2/ad) fetal calf serum or in 2% (NIH3T3 RET/C634Y and HRAS/G12V) calf serum. Ba/F3 cells (200000 per well in 2 mL) were seeded in six-well tissue culture plates and kept in 10% fetal calf serum. The day after plating, different concentrations of the drug or vehicle were added to the medium and changed every 2–3 days. Cells were counted every day (Ba/F3), every 2 days (fibroblasts), or every 2–3 days (human cell lines). To compare cell growth, we performed an unpaired Student’s t test using the Instat software program (Graphpad Software Inc.). […] IC50 doses were calculated through a curve fitting analysis from last day of growth curves using the PRISM software program (Graphpad Software Inc.).

CC(C)(C)c1cc(NC(=O)Cc2ccc(-n3cnc4cc(-c5ccc(S(C)(=O)=O)cc5)ccc43)cc2)no1 [NPA101.3]
demethyl metabolites in plasma [1]: no trace | IC50 [2]: 0.67 to 3.6 nM
